Structures can show the parent of a compound that is named as a salt.
Key:
[1] = test system: phenyl-p-benzoquinone induced writhing in mice; assay: mouse antiphenylquinone writhing test at 20 minutes, oral nalbuphine.HCl / aspirin suspension (Method 1); type: in vivo, mouse (Male CF1)
Protocol: (§1) Male CF1 mice obtained from Charles River Breeding Laboratories, fasted for 16-22 hours, and weighing 18-22 g at the time of testing are used throughout. All mice are dosed sequentially by the oral route with suspensions of acetylsalicylic acid and/or of nalbuphine solutions (Method 1) or of calcium acetylsalicylate (calcium aspirin) and/or of nalbuphine solutions (Method 2). In each case the aspirin component is calculated as the equivalent free acid content, and nalbuphine is calculated as the hydrochloride salt. A dosing volume of 10 ml/kg is used for each sequential solution or suspension. All doses are coded and the test is performed under a code not known to the observer.
A stock suspension of aspirin is prepared by mixing 2.016 gm aspirin with 40 ml of an aqueous vehicle containing 2% by volume of Tween 80®, a pharmacological dispersant manufactured by Fisher Scientific Company and containing 100% polysorbate 80, and 1% by weight of Methocel® MC powder, a pharmacological suspending agent manufactured by DOW Chemical Company and containing 100% methylcellulose, in distilled water. The mixture is sonicated at 150 watts for 10-15 seconds with an ultrasound system, then shaken for 1 hour at 280 oscillations/minute with 15-20 gm of glass beads. The resultant suspension contains 50.4 mg/ml of aspirin; all dosing suspensions are prepared by dilution of the stock suspension with the Methocel®/Tween 80® vehicle; the vehicle control is Methocel®/Tween 80®. All suspensions are used within two hours of preparation, then discarded.
Stock solutions of nalbuphine.HCl are prepared by dissolving dry nalbuphine hydrochloride powder with distilled water. All dosing solutions are prepared by dilution of the stock solutions with distilled water; the vehicle control is distilled water.
(§2) A standard procedure for detecting and comparing the analgetic activity of different classes of analgesic drugs for which there is a good correlation with human analgetic activity is the prevention of phenyl-p-benzoquinone induced writhing in mice [H. Blumberg et al., Proc. Soc. Exp. Biol. Med., 118, 763-766 (1965)].
(§3) Mice, intubated with various doses of nalbuphine.HCl, aspirin suspensions (Method 1), calcium aspirin solution (Method 2), or immediately sequential doses of nalbuphine.HCl and of the aspirin preparations as defined further, or of the respective vehicles, are injected intraperitoneally with a standard challenge dose of phenyl-p-benzoquinone 5 min. prior to a designated observation period. The phenyl-p-benzoquinone is prepared as a 0.1 mg/ml solution in 5% by volume of ethanol in water; the writhing dose is 1.25 mg/kg injected at a volume of 0.25 ml/20 g. For scoring purposes a "writhe" is indicated by whole body stretching or contraction of the abdomen during a 10 min. observation period beginning 5 min. after receiving the phenyl-p-benzoquinone dose. Each mouse is used only once, then discarded.
(§4) All ED50 values and their 95% confidence limits are determined numerically by the methods of Thompson [W. F. Thompson, Bacteriological Rev., 11, 115-145 (1947)], Litchfield and Wilcoxon [J. T. Litchfield, Jr. and F. Wilcoxon, J. Pharm. Exp. Ther., 96, 99-113 (1949)], or Finney [D. J. Finney, "Probit Analysis," third edition, Cambridge University Press, Cambridge, England, (1971)].
Rev., 9, 237-242 (1957)] in FIG. 1. […] In the isobolographic figures, the analgetic effects of nalbuphine alone are presented on the Y axis and of aspirin alone (or calcium aspirin, expressed as aspirin equivalent dosages) on the X axis. The dotted lines radiating from the origin represent the fixed dosage ratios of nalbuphine.HCl:aspirin in the ranges of 1:2.44 to 1:60.9 and 1:1.76 to 1:61.7 for FIGS. 1 and 2, respectively. […] The arrows extending above and below each ED50 point represent the 95% confidence limits of the ED50's. […]

[2] = test system: phenyl-p-benzoquinone induced writhing in mice; assay: mouse antiphenylquinone writhing test at 40 minutes, oral nalbuphine.HCl / calcium aspirin (Method 2); type: in vivo, mouse (Male CF1)
Protocol: as §1
A stock solution of calcium aspirin is prepared by mixing 4.032 gm of aspirin and 1.120 gm of precipitated calcium carbonate with 50 ml of distilled water at 40°-50° C. until the solids are completely dissolved, then diluting to 60 ml with distilled water at ambient temperature to obtain a solution containing 67.2 mg/ml of aspirin equivalent. All dosing solutions are prepared by dilution of the stock solution with distilled water; the vehicle control is distilled water. All solutions are used within two hours of preparation, then discarded.
Stock solutions of nalbuphine.HCl are prepared as described for Method 1.
as §2, §3, §4
Rev., 9, 237-242 (1957)] in FIG. 1. […] In the isobolographic figures, the analgetic effects of nalbuphine alone are presented on the Y axis and of aspirin alone (or calcium aspirin, expressed as aspirin equivalent dosages) on the X axis. The dotted lines radiating from the origin represent the fixed dosage ratios of nalbuphine.HCl:aspirin in the ranges of 1:2.44 to 1:60.9 and 1:1.76 to 1:61.7 for FIGS. 1 and 2, respectively. […] The arrows extending above and below each ED50 point represent the 95% confidence limits of the ED50's.
The solid line connecting the ED50 dosages of nalbuphine (alone) and aspirin (alone) represents the "ED50 addition line," which indicates the expected location of the ED50's for nalbuphine and aspirin combinations if simple additivity were to describe their combined effects. The 95% confidence range for the ED50 addition line is shown by the area between the broken lines above and below the ED50 addition line. […]

CC(=O)Oc1ccccc1C(=O)O [Aspirin, acetylsalicylic acid]
ED50 at 20 MIN., Aspirin (component) ([1]; N = 24 mice/dose): 206 mg/kg
% MICE BLOCKED ([1]; nalbuphine.HCl 0, aspirin 63 mg/kg): 8.3%
% MICE BLOCKED ([1]; nalbuphine.HCl 0, aspirin 126 mg/kg): 37.5%
% MICE BLOCKED ([1]; nalbuphine.HCl 0, aspirin 252 mg/kg): 58.3%
% MICE BLOCKED ([1]; nalbuphine.HCl 0, aspirin 504 mg/kg): 79.2%

Oc1ccc2c3c1O[C@H]1[C@@H](O)CC[C@@]4(O)[C@@H](C2)N(CC2CCC2)CC[C@]314 [Nalbuphine . HCl, (-)17-(cyclobutylmethyl)-4,5α-epoxymorphinan-3,6α,14-triol]
ED50 at 20 MIN., Nalbuphine . HCl (component) ([1]; N = 24 mice/dose): 26.1 mg/kg
% MICE BLOCKED ([1]; nalbuphine.HCl 5.18 mg/kg, aspirin 0): 0%
% MICE BLOCKED ([1]; nalbuphine.HCl 10.4 mg/kg, aspirin 0): 16.7%
% MICE BLOCKED ([1]; nalbuphine.HCl 20.7 mg/kg, aspirin 0): 50.0%
% MICE BLOCKED ([1]; nalbuphine.HCl 41.4 mg/kg, aspirin 0): 62.5%
ED50 at 40 MIN., Nalbuphine . HCl (component) ([2]; N = 54 mice/dose): 42.6 mg/kg
% MICE BLOCKED ([2]; nalbuphine.HCl 5.45 mg/kg alone): 13.0%
% MICE BLOCKED ([2]; nalbuphine.HCl 10.9 mg/kg, aspirin 0): 16.7%
% MICE BLOCKED ([2]; nalbuphine.HCl 21.8 mg/kg, aspirin 0): 27.8%
% MICE BLOCKED ([2]; nalbuphine.HCl 43.6 mg/kg, aspirin 0): 50.0%
% MICE BLOCKED ([2]; nalbuphine.HCl 87.2 mg/kg, aspirin 0): 74.1%

CC(=O)Oc1ccccc1C(=O)O [calcium aspirin, calcium acetylsalicylate]
ED50 at 40 MIN., Aspirin (component; calcium aspirin as equivalent free aspirin) ([2]; N = 54 mice/dose): 171 mg/kg
% MICE BLOCKED ([2]; nalbuphine.HCl 0, aspirin equiv. 48 mg/kg): 7.4%
% MICE BLOCKED ([2]; nalbuphine.HCl 0, aspirin equiv. 96 mg/kg): 13.0%
% MICE BLOCKED ([2]; nalbuphine.HCl 0, aspirin equiv. 192 mg/kg): 63.0%
% MICE BLOCKED ([2]; nalbuphine.HCl 0, aspirin equiv. 384 mg/kg): 87.0%

Source: patent US4282215A, “Analgesic mixture of nalbuphine and acetylsalicylic acid, derivative or salt thereof” (E. I. Du Pont de Nemours and Company, priority 1980, dated 1981)
